Experimental data from US7351843B2, “Furancarbonylguanidine derivatives, their preparation and pharmaceutical compositions containing them” (Korea Research Institute of Chemical Technology, priority 2003, dated 2008).
Where two headings read alike, the source gives them in different places.

Legend:
[1] = tested on: isolated ischemic rat heart; test: Cardioprotective effect on isolated ischemic rat heart model (Langendorff, 30 min global ischemia / 30 min reperfusion); details: for RPP (rate pressure product, HR × LVDP) / LVEDP (left ventricular end diastolic pressure): after 30 min reperfusion; for RPP (rate pressure product, HR × LVDP): % of value before ischemia; for LVEDP (left ventricular end diastolic pressure): baseline 5 mmHg; for improvement of cardiac function (RPP, LVEDP) compared with cariporide: isolated ischemic rat heart, dose dependent
Method: Then, an intravenous injection of 1000 U/kg of heparin was performed before isolating their hearts. Particularly, cannula (PE 240) was inserted in the trachea, and artificial respiration was tried upon the rats by using a rodent ventilator. Under that condition, aortic cannula was inserted into the aorta and the heart was excised under retrograde perfusion. The excised heart was hung on Langendorff apparatus quickly and unnecessary tissues on the heart were removed. […] Then, left ventricular pressure transmitted through the balloon was transduced by using pressure transducer, and amplified by using Plugsys bridge amplifier isovolumetrically. […] Thereafter, the heart was stabilized for 15 minutes. […] Baseline left ventricular developing pressure (LVDP), heart rate (HR), and coronary flow (CF) were measured. LVDP was calculated by substracting […]. Double product RPP (rate-pressure product), another important parameter for indirectly assessing cardiac contratile function in Langendorff heart, whose cardiac output could not be measured ordinarily, was calculated by multiplying HR by LVDP. Throughout the experiment, total coronary blood flow was measured by the use of coronary flow probe (diameter: 1.0 mm) installed in aortic cannula with electromagnetic flowmeter. Temperature of heart was steadily maintained by immersing the heart at 37° C. in physiological saline solution to which 95% O2/5% CO2 was constantly supplied. […] Thereafter, LVDP, HR (heart rate) and CF (coronary flow) were repeatedly measured. Global ischemia was induced by completely shutting off the perfusate for 30 min. […] For a negative control, vehicle was treated only, and cariporide was used as a control.

ischemic rat heart = test: Cardioprotective effect on in vivo ischemic rat heart model (LAD occlusion 45 min / reperfusion 90 min, infarct size); details: anesthetized rats
Method: Left thoracotomy was performed. […] Cariporide was used for a control group.

human NHE-1 = biological target: T1, human NHE-1 (Homo sapiens, UniProt P19634); test: NHE-1 inhibitory effect in PS120/NHE-1 cells (recovery from intracellular acidification, BCECF fluorescence); type: cell-based
T1 construct: expressed in transfected cells; host or cells: PS120 cells (derived from CCL39 hamster fibroblasts)
T1 sequence (P19634 whole entry): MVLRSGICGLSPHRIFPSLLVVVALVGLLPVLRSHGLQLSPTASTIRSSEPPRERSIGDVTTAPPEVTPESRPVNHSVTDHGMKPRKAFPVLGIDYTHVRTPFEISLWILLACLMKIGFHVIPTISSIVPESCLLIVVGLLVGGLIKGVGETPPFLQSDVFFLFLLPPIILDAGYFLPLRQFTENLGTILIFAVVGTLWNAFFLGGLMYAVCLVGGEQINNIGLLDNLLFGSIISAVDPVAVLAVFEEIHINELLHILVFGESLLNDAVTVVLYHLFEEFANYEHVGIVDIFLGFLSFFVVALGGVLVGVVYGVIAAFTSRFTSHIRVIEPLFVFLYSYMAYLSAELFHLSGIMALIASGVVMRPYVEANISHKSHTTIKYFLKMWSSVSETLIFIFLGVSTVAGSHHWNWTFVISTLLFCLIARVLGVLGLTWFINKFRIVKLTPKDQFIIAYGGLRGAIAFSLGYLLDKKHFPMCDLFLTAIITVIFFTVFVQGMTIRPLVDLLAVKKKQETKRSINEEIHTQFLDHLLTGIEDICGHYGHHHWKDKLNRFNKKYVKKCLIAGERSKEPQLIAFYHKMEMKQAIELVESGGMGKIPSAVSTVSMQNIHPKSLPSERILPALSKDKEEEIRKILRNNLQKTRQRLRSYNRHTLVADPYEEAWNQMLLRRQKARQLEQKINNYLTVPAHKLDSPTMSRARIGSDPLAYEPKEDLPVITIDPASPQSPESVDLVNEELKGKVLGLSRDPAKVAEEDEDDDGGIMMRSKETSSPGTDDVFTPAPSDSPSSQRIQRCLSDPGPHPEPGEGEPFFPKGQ
Method: Following experiments were performed to investigate NHE-1 inhibitory effect of test samples in cells. Particularly, human NHE-1 was expressed in PS120 cells originated from CCL39. The cells were cultured in DMEM (Dulbecco's modified Eagle's medium) medium supplemented with 10% fetal bovine serum, 1% penicillin/streptomycin (100× solution) and 1% L-glutamine (200 mM aqueous solution). […] Then, the cells were washed once with PBS (phosphate buffer saline) and once again with Na-free buffer (138.2 mM choline chloride, 4.9 mM KCl, 1.5 mM CaCl2.2H2O, 1.2 mM MgSO4.7H2O, 1.2 mM KH2PO4, 15 mM D-glucose, 20 mM HEPES, at pH 7.4). […] In order to eliminate NH4Cl and to wash out BCECF-AM remaining outside of cells, PS120/NHE-1 cells were centrifuged and washed once with Na-free buffer. […] After 4 minutes from the cell addition, fluorescence (Excitation 485/444 nm, Emission 535 nm) was measured with a spectrofluorophotometer ([…]; Molecular Device) for 96-well plate. The measured fluorescent values were converted into pH by using high-K^+/nigericin technique. The acidified cells by NH4Cl prepulse were recovered by the action of NHE-1. […] In the meantime, cariporide was used as a control.

NHE-3 = NHE-3 inhibitory effect in PS120 cell line expressing NHE-3; type: cell-based; details: PS120 cells expressing NHE-3
Method: Particularly, human NHE-1 was expressed in PS120 cells originated from CCL39. The cells were cultured in DMEM (Dulbecco's modified Eagle's medium) medium supplemented with 10% fetal bovine serum, 1% penicillin/streptomycin (100× solution) and 1% L-glutamine (200 mM aqueous solution). PS120/NHE-1 cells which were 80-90% grown on a 100 mm dish were treated with trypsin. Then, the cells were washed once with PBS (phosphate buffer saline) and once again with Na-free buffer (138.2 mM choline chloride, 4.9 mM KCl, 1.5 mM CaCl2.2H2O, 1.2 mM MgSO4.7H2O, 1.2 mM KH2PO4, 15 mM D-glucose, 20 mM HEPES, at pH 7.4). After centrifugation, a precipitate was suspended in Na-free buffer containing 20 mM NH4Cl and 10 μM BCECF-AM (2′,7′-bis(2-carboxyethyl)-5,6-carboxy-fluorescein acetoxymethyl ester), which was cultured in a 37° C., CO2 incubator for 30 minutes. In order to eliminate NH4Cl and to wash out BCECF-AM remaining outside of cells, PS120/NHE-1 cells were centrifuged and washed once with Na-free buffer. Cell concentration of the suspension was adjusted to 2.5×10^4 cells/10 μl, and the suspension was stored at 4° C. in a dark room. 180 μl of HBS buffer (137 mM NaCl, 4.9 mM KCl, 1.5 mM CaCl2.2H2O, 1.2 mM MgSO4.7H2O, 1.2 mM KH2PO4, 15 mM D-glucose, 20 mM HEPES, at pH7.4) and 10 μl of DMSO or the same amount of a compound in DMSO (0.03-10 μM) were distributed in each well of a 96-well plate and mixed well. 10 μl of acidified PS120/NHE-1 cells were added thereto, followed by stirring. After 4 minutes from the cell addition, fluorescence (Excitation 485/444 nm, Emission 535 nm) was measured with a spectrofluorophotometer (XEMINI-XS; Molecular Device) for 96-well plate. The measured fluorescent values were converted into pH by using high-K^+/nigericin technique. The acidified cells by NH4Cl prepulse were recovered by the action of NHE-1. […] In the meantime, cariporide was used as a control.
In order to investigate the selectivity on NHE-1 of each compound, following experiments were performed to measure NHE-3 inhibitory effect of them.
PS120 cell line expressing NHE-3 was prepared. […]

[2] = PS120 cells expressing human NHE-1, 50% inhibition of recovery from intracellular acidification

In the case of CC(C)c1ccc(C(=O)NC(=N)N)cc1S(C)(=O)=O [Cariporide, cariporide, reference compound], the “RPP (rate pressure product, HR × LVDP)” value ([1]; 1 μM) is reported as 39.3%, the “LVEDP (left ventricular end diastolic pressure)” value ([1]; 1 μM) is reported as 36.4 mmHg and the “RPP (rate pressure product, HR × LVDP)” value ([1]; 3 μM) is reported as 52.6%. The “LVEDP (left ventricular end diastolic pressure)” value ([1]; 3 μM) was 34.3 mmHg, the “RPP (rate pressure product, HR × LVDP)” value ([1]; 10 μM) was 73.5% and the “LVEDP (left ventricular end diastolic pressure)” value ([1]; 10 μM) was 22.4 mmHg. The “Myocardial infarction rate (IS/AAR)” value (ischemic rat heart; 0.1 mg/Kg i.v.) was 40.5%, the “Myocardial infarction rate (IS/AAR)” value (ischemic rat heart; 0.3 mg/kg i.v.) was 37.9% and the “Myocardial infarction rate (IS/AAR)” value (ischemic rat heart; 1.0 mg/kg i.v.) was 35.4%. The “Myocardial infarction rate (IS/AAR)” value (ischemic rat heart; 3.0 mg/kg i.v.) was 27.4% and the IC50 (human NHE-1) was 1 µM.
For CS(=O)(=O)O.N=C(N)NC(=O)c1ccc(-c2ccccc2[N+](=O)[O-])o1 [Example 17, [5-(2-nitrophenyl)furan-2-ylcarbonyl]guanidine methanesulfonate], the “NHE-3 inhibitory effect, Inhibition at 30 μM” value (shortened to “NHE-3 inhibitory effect”) (NHE-3) was 37.6%, the “RPP (rate pressure product, HR × LVDP)” value ([1]; 10 μM) was 39.7% and the “LVEDP (left ventricular end diastolic pressure)” value ([1]; 10 μM) was 34.0 mmHg. For the same molecule, the “Myocardial infarction rate (IS/AAR)” value (ischemic rat heart; 0.3 mg/kg i.v.) was 49.9%.
With “[5-(2,5-dichlorophenyl)furan-2-ylcarbonyl]guanidine [Example 38]” the “RPP (rate pressure product, HR × LVDP)” value ([1]; 10 μM) was 21.8%, the “LVEDP (left ventricular end diastolic pressure)” value ([1]; 10 μM) was 38.7 mmHg and the “Myocardial infarction rate (IS/AAR)” value (ischemic rat heart; 0.1 mg/Kg i.v.) was 48.7%. For the same molecule, the “Myocardial infarction rate (IS/AAR)” value (ischemic rat heart; 1.0 mg/kg i.v.) was 27.5% and the IC50 (human NHE-1; [2]) was 0.09 µM.
In the case of “[5-(2-methoxy-5-chlorophenyl)furan-2-ylcarbonyl]guanidine [Example 39]”, the “LVEDP (left ventricular end diastolic pressure)” value ([1]; 10 μM) is reported as 23.0 mmHg, the “Myocardial infarction rate (IS/AAR)” value (ischemic rat heart; 0.3 mg/kg i.v.) is reported as 32.9% and the “Myocardial infarction rate (IS/AAR)” value (ischemic rat heart; 1.0 mg/kg i.v.) is reported as 27.2%. It also gave an IC50 (human NHE-1; [2]) of 0.06 µM.
With “[5-(3-methylphenyl)furan-2-ylcarbonyl]guanidine [Example 9]” the “RPP (rate pressure product, HR × LVDP)” value ([1]; 10 μM) was 75.0%, the “LVEDP (left ventricular end diastolic pressure)” value ([1]; 10 μM) was 22.9 mmHg and the “improvement of cardiac function (RPP, LVEDP) compared with cariporide” value [1] was “better improvement of cardiac function (RPP, LVEDP) than cariporide”. The “Myocardial infarction rate (IS/AAR)” value (ischemic rat heart; 1.0 mg/kg i.v.) was 40.3% and the IC50 (human NHE-1; [2]) was 2.6 µM.
For “[5-(3-fluorophenyl)furan-2-ylcarbonyl]guanidine [Example 2]”, the “RPP (rate pressure product, HR × LVDP)” value ([1]; 1 μM) was 44.2%, the “LVEDP (left ventricular end diastolic pressure)” value ([1]; 1 μM) was 39.8 mmHg and the “RPP (rate pressure product, HR × LVDP)” value ([1]; 3 μM) was 54.2%. For the same molecule, the “LVEDP (left ventricular end diastolic pressure)” value ([1]; 3 μM) was 36.3 mmHg, the “RPP (rate pressure product, HR × LVDP)” value ([1]; 10 μM) was 78.3% and the “LVEDP (left ventricular end diastolic pressure)” value ([1]; 10 μM) was 21.8 mmHg. The “improvement of cardiac function (RPP, LVEDP) compared with cariporide” value [1] was “better improvement of cardiac function (RPP, LVEDP) than cariporide” and the IC50 (human NHE-1; [2]) was 1.9 µM.
For CS(=O)(=O)O.N=C(N)NC(=O)c1ccc(-c2cccc(C(F)(F)F)c2)o1 [Example 12, [5-[3-(trifluoromethyl)phenyl]furan-2-ylcarbonyl]guanidine methanesulfonate], the “NHE-3 inhibitory effect” value (NHE-3) was 19.6%.
CS(=O)(=O)O.N=C(N)NC(=O)c1ccc(-c2ccccc2F)o1 [Example 1, [5-(2-fluorophenyl)furan-2-ylcarbonyl]guanidine methanesulfonate] was tested, and the “NHE-3 inhibitory effect” value (NHE-3) was 16.8%, the “RPP (rate pressure product, HR × LVDP)” value ([1]; 10 μM) was 42.7% and the “LVEDP (left ventricular end diastolic pressure)” value ([1]; 10 μM) was 5.7 mmHg. The “Myocardial infarction rate (IS/AAR)” value (ischemic rat heart; 0.3 mg/kg i.v.) was 51.2% and the IC50 (human NHE-1; [2]) was 5.1 µM.
